The supplement of paper PMC10307832

What was measured:
Experiment in all cases: relative viability (nuclei count vs DMSO), 5 days (fraction); higher = more cells survive
LU99A = system: LU99A
Method in brief: (§1)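 Five library-drug doses in √10 steps were combined with a fixed anchor-drug dose, or a single drug was given alone, by pin tool to lung cancer cell lines in 1536-well plates the day after seeding. Nuclei were stained and counted after 5 days. Relative viability is the nuclei count in treated wells over that in vehicle wells, taken as the median of duplicate plates.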

NCI-H1355 = system: NCI-H1355
Method in brief: as §1

UMC-11 = system: UMC-11
Method in brief: as §1

LC-2-ad = system: LC-2-ad
Method in brief: as §1

EPLC-272H = system: EPLC-272H
Method in brief: as §1

NCI-H1651 = system: NCI-H1651
Method in brief: as §1

COR-L23 = system: COR-L23
Method in brief: as §1

NCI-H2347 = system: NCI-H2347
Method in brief: as §1

NCI-H2126 = system: NCI-H2126
Method in brief: as §1

NCI-H838 = system: NCI-H838
Method in brief: as §1

NCI-H2085 = system: NCI-H2085
Method in brief: as §1

NCI-H650 = system: NCI-H650
Method in brief: as §1

HARA = system: HARA
Method in brief: as §1

HCC-78 = system: HCC-78
Method in brief: as §1

NCI-H2023 = system: NCI-H2023
Method in brief: as §1

PC-14 = system: PC-14
Method in brief: as §1

HCC-15 = system: HCC-15
Method in brief: as §1

SW 1573 = system: SW 1573
Method in brief: as §1

NCI-H358 = system: NCI-H358
Method in brief: as §1

ABC-1 = system: ABC-1
Method in brief: as §1

NCI-H1915 = system: NCI-H1915
Method in brief: as §1

NCI-H1993 = system: NCI-H1993
Method in brief: as §1

C=C1C(=O)O[C@@H](CCCCCCCC)[C@@H]1C(=O)O [C-75] + CS(=O)(=O)CCNCc1ccc(-c2ccc3ncnc(Nc4ccc(OCc5cccc(F)c5)c(Cl)c4)c3c2)o1 [Lapatinib] (partner 2 µM)
relative viability (LU99A; first compound 0.08 µM): 1.1
relative viability (LU99A; first compound 0.253 µM): 0.959
relative viability (LU99A; first compound 0.8 µM): 0.808
relative viability (LU99A; first compound 2.53 µM): 0.949
relative viability (LU99A; first compound 8 µM): 0.87
relative viability (NCI-H1355; first compound 0.08 µM): 0.939
relative viability (NCI-H1355; first compound 0.253 µM): 1.08
relative viability (NCI-H1355; first compound 0.8 µM): 0.884
relative viability (NCI-H1355; first compound 2.53 µM): 0.943
relative viability (NCI-H1355; first compound 8 µM): 1.01
relative viability (UMC-11; first compound 0.08 µM): 1.01
relative viability (UMC-11; first compound 0.253 µM): 1.08
relative viability (UMC-11; first compound 0.8 µM): 0.764
relative viability (UMC-11; first compound 2.53 µM): 0.795
relative viability (UMC-11; first compound 8 µM): 0.655
relative viability (LC-2-ad; first compound 0.08 µM): 0.982
relative viability (LC-2-ad; first compound 0.253 µM): 0.919
relative viability (LC-2-ad; first compound 0.8 µM): 0.898
relative viability (LC-2-ad; first compound 8 µM): 1.01
relative viability (EPLC-272H; first compound 0.08 µM): 0.974
relative viability (EPLC-272H; first compound 0.253 µM): 0.805
relative viability (EPLC-272H; first compound 0.8 µM): 1.01
relative viability (EPLC-272H; first compound 2.53 µM): 0.592
relative viability (EPLC-272H; first compound 8 µM): 0.789
relative viability (NCI-H1651; first compound 0.08 µM): 0.706
relative viability (NCI-H1651; first compound 0.253 µM): 0.853
relative viability (NCI-H1651; first compound 0.8 µM): 0.816
relative viability (NCI-H1651; first compound 2.53 µM): 0.747
relative viability (NCI-H1651; first compound 8 µM): 0.81
relative viability (COR-L23; first compound 0.08 µM): 0.868
relative viability (COR-L23; first compound 0.253 µM): 0.94
relative viability (COR-L23; first compound 0.8 µM): 0.919
relative viability (COR-L23; first compound 2.53 µM): 0.469
relative viability (COR-L23; first compound 8 µM): 1.01
relative viability (NCI-H2347; first compound 0.08 µM): 0.862
relative viability (NCI-H2347; first compound 0.253 µM): 0.94
relative viability (NCI-H2347; first compound 0.8 µM): 0.965
relative viability (NCI-H2347; first compound 2.53 µM): 0.828
relative viability (NCI-H2347; first compound 8 µM): 1.02
relative viability (NCI-H2126; first compound 0.08 µM): 0.774
relative viability (NCI-H2126; first compound 0.253 µM): 0.914
relative viability (NCI-H2126; first compound 0.8 µM): 0.728
relative viability (NCI-H2126; first compound 2.53 µM): 0.62
relative viability (NCI-H2126; first compound 8 µM): 0.758
relative viability (NCI-H838; first compound 0.08 µM): 1.01
relative viability (NCI-H838; first compound 0.253 µM): 0.726
relative viability (NCI-H838; first compound 0.8 µM): 0.856
relative viability (NCI-H838; first compound 2.53 µM): 0.803
relative viability (NCI-H838; first compound 8 µM): 0.876
relative viability (NCI-H2085; first compound 0.08 µM): 0.802
relative viability (NCI-H2085; first compound 0.253 µM): 0.867
relative viability (NCI-H2085; first compound 0.8 µM): 0.679
relative viability (NCI-H2085; first compound 2.53 µM): 0.671
relative viability (NCI-H2085; first compound 8 µM): 0.769
relative viability (NCI-H650; first compound 0.08 µM): 1.02
relative viability (NCI-H650; first compound 0.253 µM): 0.86
relative viability (NCI-H650; first compound 0.8 µM): 0.803
relative viability (NCI-H650; first compound 2.53 µM): 0.855
relative viability (NCI-H650; first compound 8 µM): 0.826
relative viability (HARA; first compound 0.08 µM): 0.619
relative viability (HARA; first compound 0.253 µM): 0.511
relative viability (HARA; first compound 0.8 µM): 0.646
relative viability (HARA; first compound 8 µM): 0.825
relative viability (HCC-78; first compound 0.08 µM): 1.05
relative viability (HCC-78; first compound 0.253 µM): 0.6
relative viability (HCC-78; first compound 0.8 µM): 0.464
relative viability (HCC-78; first compound 2.53 µM): 0.348
relative viability (HCC-78; first compound 8 µM): 0.756
relative viability (NCI-H2023; first compound 0.08 µM): 0.963
relative viability (NCI-H2023; first compound 0.253 µM): 0.956
relative viability (NCI-H2023; first compound 0.8 µM): 0.737
relative viability (NCI-H2023; first compound 2.53 µM): 0.691
relative viability (NCI-H2023; first compound 8 µM): 0.653
relative viability (PC-14; first compound 0.08 µM): 0.316
relative viability (PC-14; first compound 0.253 µM): 0.259
relative viability (PC-14; first compound 0.8 µM): 0.328
relative viability (PC-14; first compound 2.53 µM): 0.243
relative viability (PC-14; first compound 8 µM): 0.343
relative viability (HCC-15; first compound 0.08 µM): 0.838
relative viability (HCC-15; first compound 0.253 µM): 0.808
relative viability (HCC-15; first compound 0.8 µM): 0.878
relative viability (HCC-15; first compound 2.53 µM): 0.839
relative viability (HCC-15; first compound 8 µM): 0.894
relative viability (SW 1573; first compound 0.08 µM): 1.14
relative viability (SW 1573; first compound 0.253 µM): 1.14
relative viability (SW 1573; first compound 0.8 µM): 1.15
relative viability (SW 1573; first compound 2.53 µM): 1.04
relative viability (SW 1573; first compound 8 µM): 0.792
relative viability (NCI-H358; first compound 0.08 µM): 0.588
relative viability (NCI-H358; first compound 0.253 µM): 0.434
relative viability (NCI-H358; first compound 0.8 µM): 0.383
relative viability (NCI-H358; first compound 2.53 µM): 0.458
relative viability (NCI-H358; first compound 8 µM): 0.599
relative viability (ABC-1; first compound 0.08 µM): 1.1
relative viability (ABC-1; first compound 0.253 µM): 1.33
relative viability (ABC-1; first compound 0.8 µM): 1.17
relative viability (ABC-1; first compound 2.53 µM): 0.981
relative viability (ABC-1; first compound 8 µM): 0.929
relative viability (NCI-H1915; first compound 0.08 µM): 0.952
relative viability (NCI-H1915; first compound 0.253 µM): 0.945
relative viability (NCI-H1915; first compound 0.8 µM): 0.89
relative viability (NCI-H1915; first compound 2.53 µM): 0.917
relative viability (NCI-H1915; first compound 8 µM): 0.909
relative viability (NCI-H1993; first compound 0.08 µM): 0.796
relative viability (NCI-H1993; first compound 0.253 µM): 0.825
relative viability (NCI-H1993; first compound 0.8 µM): 0.807
relative viability (NCI-H1993; first compound 2.53 µM): 0.763
relative viability (NCI-H1993; first compound 8 µM): 0.667
